{"source": "patent US9861685B2", "about": "“Methods of treating hemoglobinopathies” (Duke University, priority 2012, dated 2018)", "key": {"ERK [1]": {"system": "ERK", "details": "cited from earlier work"}, "ERK1/2": {"system": "ERK1/2", "details": "see WO 2012/149547; cited from earlier work"}, "[2]": {"system": "human SS RBC adhesion to vascular endothelium and vaso-occlusion", "experiment": "Intravital microscopy of ex vivo treated human SS RBCs infused into nude mice (window chamber)", "format": "in vivo", "details": "nude mice n=2; SS RBCs treated ex vivo with 20 nM epinephrine 1 min", "method": "For some in vivo adhesion studies, packed SS RBCs were fluorescently labeled with the dye Dil (Molecular Probes Inc., Eugene, Oreg.), following the manufacturer's instructions, prior to cell treatment. Dil has been used in previous in vivo studies, and this dye has no effect on RBC suspension viscosity and RBC survival in circulation.^30 Cell morphology was checked by microscopy.\nAll animal experiments were carried out in accordance with protocols approved by the Duke University Animal Care and Use Committee. Female athymic homozygous nude mice (nu-/nu-) were between 8-12 weeks of age (Charles River Laboratories, Wilmington, Mass.).\nGeneral anesthesia was achieved by intra-peritoneal injection of 100 mg/kg of ketamine (Abbott Laboratory, Chicago, Ill.) and 10 mg/kg of xylazine (Bayer, Shawnee Mission, Kans.). […]\nAnimals were infused with washed SS RBCs (300 μl hematocrit (Hct) 50% in saline) treated with epinephrine at 20 nM for 1 min or 5 μM βARK1 for 1 hour followed by treatment with 20 nM epinephrine for 1 min. […] Microcirculatory events and cell adhesion were simultaneously recorded using a Trinitron Color video monitor (PVM-1353 MD, Sony) and JVC videocassette recorder (BR-S3784, VCR King, Durham, N.C.) connected to a digital video camera C2400 (Hamamatsu Photonics K.K., Japan). […]"}, "cAMP": {"system": "cAMP", "details": "SS RBCs"}, "β-arrestin1/2 [3]": {"system": "β-arrestin1/2", "format": "cell-based, human"}, "β-arrestin1/2 [4]": {"system": "β-arrestin1/2", "experiment": "Western blot of SS RBC membrane ghosts for β-arrestin1/2 and phosphorylated β-arrestin1"}, "[5]": {"system": "SS RBCs co-incubated with polymorphonuclear cells (PMNs)", "details": "previously shown; SS RBCs co-incubated with naive PMNs; cited from earlier work"}, "ERK [6]": {"system": "ERK", "format": "cell-based, human"}, "GRK2": {"target": "T1, GRK2 (Homo sapiens, UniProt P25098)", "T1 sequence (P25098 1-689)": "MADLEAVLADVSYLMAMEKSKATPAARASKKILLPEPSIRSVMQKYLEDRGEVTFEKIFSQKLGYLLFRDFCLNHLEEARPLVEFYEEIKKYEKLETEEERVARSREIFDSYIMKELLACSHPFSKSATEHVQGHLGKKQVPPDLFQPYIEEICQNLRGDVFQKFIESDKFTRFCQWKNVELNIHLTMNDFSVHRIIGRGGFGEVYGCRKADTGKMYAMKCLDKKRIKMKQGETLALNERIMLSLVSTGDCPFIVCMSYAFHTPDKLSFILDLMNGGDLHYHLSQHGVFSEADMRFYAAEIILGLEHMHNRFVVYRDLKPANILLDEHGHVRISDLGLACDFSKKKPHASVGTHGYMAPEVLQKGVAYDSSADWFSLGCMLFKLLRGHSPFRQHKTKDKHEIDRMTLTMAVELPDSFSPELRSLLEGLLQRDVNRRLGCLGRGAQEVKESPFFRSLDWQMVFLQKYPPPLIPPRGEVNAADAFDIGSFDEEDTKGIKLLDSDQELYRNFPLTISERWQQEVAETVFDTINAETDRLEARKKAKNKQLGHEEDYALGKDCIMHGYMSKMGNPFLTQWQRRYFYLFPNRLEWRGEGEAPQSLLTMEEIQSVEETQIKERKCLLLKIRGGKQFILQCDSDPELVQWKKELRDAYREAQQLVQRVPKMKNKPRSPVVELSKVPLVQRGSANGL", "experiment": "Western blot of SS RBC membrane ghosts for total and phosphorylated GRK2"}}, "data": [{"smiles": "CNC[C@H](O)c1ccc(O)c(O)c1", "note": "[Epi, epinephrine]", "values": [{"measurement": "ERK phosphorylation", "setting": "ERK [1]", "value": "enhanced"}, {"measurement": "ERK phosphorylation/activation in normal RBCs", "setting": "ERK1/2", "value": "fails to become phosphorylated/activated"}, {"measurement": "SS RBC adhesion in inflamed venules", "setting": "[2]", "value": "marked adhesion"}, {"measurement": "vaso-occlusion (occlusion of vessels)", "setting": "[2]", "value": "induced occlusion"}, {"measurement": "SCD patient samples tested in which cAMP levels increased", "setting": "cAMP", "value": 50, "unit": "%"}, {"measurement": "basal phosphorylation of β-arrestin1", "setting": "β-arrestin1/2 [3]", "value": "failed to increase"}, {"measurement": "membrane-recruitment of β-arrestin1/2", "setting": "β-arrestin1/2 [3]", "value": "failed to increase"}, {"measurement": "β-arrestin1/2 membrane-recruitment (translocation)", "setting": "β-arrestin1/2 [4]", "value": "enhanced"}, {"measurement": "β-arrestin1 phosphorylation", "setting": "β-arrestin1/2 [4]", "value": "enhanced"}]}, {"smiles": "CC(=O)Nc1cccc(-n2c(=O)n(C3CC3)c(=O)c3c(Nc4ccc(I)cc4F)n(C)c(=O)c(C)c32)c1", "note": "[GSK1120212]", "values": [{"measurement": "ability of SS RBCs to promote PMN adhesion to ECs", "setting": "[5]", "value": "decreased"}]}, {"smiles": "N#CC(=C(/N)Sc1ccccc1N)/C(C#N)=C(\\N)Sc1ccccc1N", "note": "[U0126]", "values": [{"measurement": "effect on CT-increased ERK phosphorylation", "setting": "ERK [6]", "value": "inhibited"}, {"measurement": "ability of SS RBCs to promote PMN adhesion to ECs", "setting": "[5]", "value": "decreased"}, {"measurement": "effect on CT-induced β-arrestin1/2 membrane-translocation", "setting": "β-arrestin1/2 [4]", "value": "significantly inhibited"}, {"measurement": "effect on PTx-induced β-arrestin1/2 recruitment to the membrane", "setting": "β-arrestin1/2 [4]", "value": "failed to have an effect"}, {"measurement": "effect on levels of β-arrestin1 phosphorylation (CT-treated)", "setting": "β-arrestin1/2 [4]", "value": "decreased"}, {"measurement": "effect on CT-induced GRK2 membrane-translocation", "setting": "GRK2", "value": "significantly abrogated"}, {"measurement": "effect on CT-induced GRK2 phosphorylation", "setting": "GRK2", "value": "significantly abrogated"}, {"measurement": "effect on PTx-induced GRK2 membrane-translocation", "setting": "GRK2", "value": "significantly abrogated"}, {"measurement": "effect on PTx-induced GRK2 phosphorylation", "setting": "GRK2", "value": "significantly abrogated"}]}, {"smiles": "Cn1cnc2c(F)c(Nc3ccc(Br)cc3Cl)c(C(=O)NOCCO)cc21", "note": "[AZD6244]", "values": [{"measurement": "ability of SS RBCs to promote PMN adhesion to ECs", "setting": "[5]", "value": "decreased"}]}, {"smiles": "COc1cc(F)c(F)c(Nc2ccc(I)cc2F)c1NS(=O)(=O)C1(C[C@H](O)CO)CC1", "note": "[RDEA119]", "values": [{"measurement": "ability of SS RBCs to promote PMN adhesion to ECs", "setting": "[5]", "value": "decreased"}]}]}
